# According to PubChem BioAssay (NCI):
#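 Exposure lasted 48 hours, with cells grown in 96-well plates and compounds tested at five concentrations. The concentration for full growth arrest is given as TGI.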
# Experiments:
# Test in all cases: NCI anticancer screen, dose series, 48 h
# PC-3 prostate = system: PC-3 prostate
# DMS 114 small cell lung = system: DMS 114 small cell lung
# NCI-H226 lung = system: NCI-H226 lung
# HCT-15 colon = system: HCT-15 colon
# MALME-3M melanoma = system: MALME-3M melanoma
# SK-MEL-5 melanoma = system: SK-MEL-5 melanoma
# MCF7 breast = system: MCF7 breast
# TK-10 renal = system: TK-10 renal
# SNB-75 CNS = system: SNB-75 CNS
# SK-MEL-2 melanoma = system: SK-MEL-2 melanoma
# SNB-78 CNS = system: SNB-78 CNS
# CAKI-1 renal = system: CAKI-1 renal
# MDA-MB-435 = system: MDA-MB-435
# A549 NSCLC = system: A549 NSCLC
# IGROV1 ovarian = system: IGROV1 ovarian
# OVCAR-8 ovarian = system: OVCAR-8 ovarian
# EKVX NSCLC = system: EKVX NSCLC
# DMS 273 small cell lung = system: DMS 273 small cell lung
# SF-268 CNS = system: SF-268 CNS
# UO-31 renal = system: UO-31 renal
# MDA-N = system: MDA-N
# RXF-631 renal = system: RXF-631 renal
# OVCAR-5 ovarian = system: OVCAR-5 ovarian
# LOX IMVI melanoma = system: LOX IMVI melanoma
# OVCAR-4 ovarian = system: OVCAR-4 ovarian
# SF-539 CNS = system: SF-539 CNS
# HOP-92 NSCLC = system: HOP-92 NSCLC
# RPMI-8226 leukemia = system: RPMI-8226 leukemia
# SK-MEL-28 melanoma = system: SK-MEL-28 melanoma
# LXFL 529 NSCLC = system: LXFL 529 NSCLC
# SNB-19 CNS = system: SNB-19 CNS
# HOP-62 NSCLC = system: HOP-62 NSCLC
# HCT-116 colon = system: HCT-116 colon
# RXF 393 renal = system: RXF 393 renal
# KM20L2 colon = system: KM20L2 colon
# NCI/ADR-RES ovarian = system: NCI/ADR-RES ovarian
# ACHN renal = system: ACHN renal
# OVCAR-3 ovarian = system: OVCAR-3 ovarian
# HL-60(TB) leukemia = system: HL-60(TB) leukemia
# SR leukemia = system: SR leukemia
# MOLT-4 leukemia = system: MOLT-4 leukemia
# COLO 205 colon = system: COLO 205 colon
# MDA-MB-231 breast = system: MDA-MB-231 breast
# CCRF-CEM leukemia = system: CCRF-CEM leukemia
# XF 498 CNS = system: XF 498 CNS
# SF-295 CNS = system: SF-295 CNS
# BT-549 breast = system: BT-549 breast
# SK-OV-3 ovarian = system: SK-OV-3 ovarian
# SW-620 colon = system: SW-620 colon
# A498 renal = system: A498 renal
# 786-0 renal = system: 786-0 renal
# HS 578T breast = system: HS 578T breast
# KM12 colon = system: KM12 colon
# NCI-H460 lung = system: NCI-H460 lung
# K-562 leukemia = system: K-562 leukemia
# UACC-62 melanoma = system: UACC-62 melanoma
# HCC-2998 colon = system: HCC-2998 colon
# NCI-H522 lung = system: NCI-H522 lung
# M19-MEL melanoma = system: M19-MEL melanoma
# SN12C renal = system: SN12C renal
# HT29 colon = system: HT29 colon
# DLD-1 colon = system: DLD-1 colon
# U251 CNS = system: U251 CNS
# NCI-H23 lung = system: NCI-H23 lung
# UACC-257 melanoma = system: UACC-257 melanoma
# DU-145 prostate = system: DU-145 prostate
# M14 melanoma = system: M14 melanoma
# T-47D breast = system: T-47D breast
compound,measurement,setting,value
O=[As]O,TGI,PC-3 prostate,> 100 µM
same,TGI,DMS 114 small cell lung,40.3 µM
same,TGI,NCI-H226 lung,> 100 µM
same,TGI,HCT-15 colon,> 100 µM
same,TGI,MALME-3M melanoma,> 59.9 µM
same,TGI,SK-MEL-5 melanoma,> 61.8 µM
same,TGI,MCF7 breast,> 100 µM
same,TGI,TK-10 renal,> 100 µM
same,TGI,SNB-75 CNS,97.2 µM
same,TGI,SK-MEL-2 melanoma,> 100 µM
same,TGI,SNB-78 CNS,> 100 µM
same,TGI,CAKI-1 renal,> 100 µM
same,TGI,MDA-MB-435,> 100 µM
same,TGI,A549 NSCLC,> 100 µM
same,TGI,IGROV1 ovarian,> 60.4 µM
same,TGI,OVCAR-8 ovarian,> 70.1 µM
same,TGI,EKVX NSCLC,> 100 µM
same,TGI,DMS 273 small cell lung,> 100 µM
same,TGI,SF-268 CNS,> 74.4 µM
same,TGI,UO-31 renal,> 100 µM
same,TGI,MDA-N,> 100 µM
same,TGI,RXF-631 renal,22.5 µM
same,TGI,OVCAR-5 ovarian,> 100 µM
same,TGI,LOX IMVI melanoma,96.9 µM
same,TGI,OVCAR-4 ovarian,> 100 µM
same,TGI,SF-539 CNS,> 54.3 µM
same,TGI,HOP-92 NSCLC,> 91.5 µM
same,TGI,RPMI-8226 leukemia,> 100 µM
same,TGI,SK-MEL-28 melanoma,> 100 µM
same,TGI,LXFL 529 NSCLC,> 100 µM
same,TGI,SNB-19 CNS,> 100 µM
same,TGI,HOP-62 NSCLC,> 100 µM
same,TGI,HCT-116 colon,> 100 µM
same,TGI,RXF 393 renal,> 93.5 µM
same,TGI,KM20L2 colon,> 100 µM
same,TGI,NCI/ADR-RES ovarian,> 100 µM
same,TGI,ACHN renal,> 100 µM
same,TGI,OVCAR-3 ovarian,> 74.1 µM
same,TGI,HL-60(TB) leukemia,18.5 µM
same,TGI,SR leukemia,> 71.5 µM
same,TGI,MOLT-4 leukemia,> 100 µM
same,TGI,COLO 205 colon,> 100 µM
same,TGI,MDA-MB-231 breast,> 100 µM
same,TGI,CCRF-CEM leukemia,> 66.8 µM
same,TGI,XF 498 CNS,36.8 µM
same,TGI,SF-295 CNS,> 100 µM
same,TGI,BT-549 breast,> 100 µM
same,TGI,SK-OV-3 ovarian,> 100 µM
same,TGI,SW-620 colon,> 100 µM
same,TGI,A498 renal,> 100 µM
same,TGI,786-0 renal,> 100 µM
same,TGI,HS 578T breast,> 100 µM
same,TGI,KM12 colon,> 100 µM
same,TGI,NCI-H460 lung,> 100 µM
same,TGI,K-562 leukemia,> 89.5 µM
same,TGI,UACC-62 melanoma,> 59.3 µM
same,TGI,HCC-2998 colon,> 100 µM
same,TGI,NCI-H522 lung,> 60.5 µM
same,TGI,M19-MEL melanoma,63.6 µM
same,TGI,SN12C renal,> 95.1 µM
same,TGI,HT29 colon,> 100 µM
same,TGI,DLD-1 colon,> 100 µM
same,TGI,U251 CNS,> 52.8 µM
same,TGI,NCI-H23 lung,> 100 µM
same,TGI,UACC-257 melanoma,> 93.3 µM
same,TGI,DU-145 prostate,> 100 µM
same,TGI,M14 melanoma,> 96.1 µM
same,TGI,T-47D breast,> 100 µM
Cc1cc2c(c3c1c1ccccc1n3C)C(=O)c1ccccc1C2=O,TGI,DMS 114 small cell lung,> 100 µM
same,TGI,HCT-15 colon,> 100 µM
same,TGI,MALME-3M melanoma,> 100 µM
same,TGI,SK-MEL-5 melanoma,> 100 µM
same,TGI,TK-10 renal,> 100 µM
same,TGI,SNB-75 CNS,> 100 µM
same,TGI,SK-MEL-2 melanoma,> 100 µM
same,TGI,SNB-78 CNS,> 100 µM
same,TGI,A549 NSCLC,> 100 µM
same,TGI,IGROV1 ovarian,> 100 µM
same,TGI,OVCAR-8 ovarian,> 100 µM
same,TGI,EKVX NSCLC,> 100 µM
same,TGI,DMS 273 small cell lung,> 100 µM
same,TGI,SF-268 CNS,> 100 µM
same,TGI,UO-31 renal,> 100 µM
same,TGI,RXF-631 renal,> 100 µM
same,TGI,OVCAR-5 ovarian,> 100 µM
same,TGI,LOX IMVI melanoma,> 100 µM
same,TGI,OVCAR-4 ovarian,> 100 µM
same,TGI,SF-539 CNS,> 100 µM
same,TGI,HOP-92 NSCLC,> 100 µM
same,TGI,RPMI-8226 leukemia,> 100 µM
same,TGI,SK-MEL-28 melanoma,> 100 µM
same,TGI,LXFL 529 NSCLC,> 100 µM
same,TGI,SNB-19 CNS,> 100 µM
same,TGI,HOP-62 NSCLC,> 100 µM
same,TGI,HCT-116 colon,> 100 µM
same,TGI,RXF 393 renal,> 100 µM
same,TGI,KM20L2 colon,> 100 µM
same,TGI,ACHN renal,> 100 µM
same,TGI,OVCAR-3 ovarian,> 100 µM
same,TGI,HL-60(TB) leukemia,> 100 µM
same,TGI,MOLT-4 leukemia,> 100 µM
same,TGI,COLO 205 colon,> 100 µM
same,TGI,CCRF-CEM leukemia,> 100 µM
same,TGI,XF 498 CNS,> 100 µM
same,TGI,SF-295 CNS,> 100 µM
same,TGI,SW-620 colon,> 100 µM
same,TGI,786-0 renal,> 100 µM
same,TGI,KM12 colon,> 100 µM
same,TGI,NCI-H460 lung,> 100 µM
same,TGI,K-562 leukemia,> 100 µM
same,TGI,UACC-62 melanoma,> 100 µM
same,TGI,HCC-2998 colon,> 100 µM
same,TGI,NCI-H522 lung,> 100 µM
same,TGI,M19-MEL melanoma,> 100 µM
same,TGI,SN12C renal,> 100 µM
same,TGI,HT29 colon,> 100 µM
same,TGI,DLD-1 colon,> 100 µM
same,TGI,U251 CNS,> 100 µM
same,TGI,NCI-H23 lung,> 100 µM
same,TGI,UACC-257 melanoma,> 100 µM
same,TGI,M14 melanoma,> 100 µM
CCOP(=O)(OCC)C1CC(C)OC1=O (stereo not given),TGI,DMS 114 small cell lung,> 100 µM
same,TGI,HCT-15 colon,> 100 µM
same,TGI,MALME-3M melanoma,> 100 µM
same,TGI,SK-MEL-5 melanoma,> 100 µM
same,TGI,TK-10 renal,> 100 µM
same,TGI,SNB-75 CNS,> 100 µM
same,TGI,SK-MEL-2 melanoma,> 100 µM
same,TGI,SNB-78 CNS,> 100 µM
same,TGI,CAKI-1 renal,> 100 µM
same,TGI,A549 NSCLC,> 100 µM
same,TGI,IGROV1 ovarian,> 100 µM
same,TGI,OVCAR-8 ovarian,> 100 µM
same,TGI,EKVX NSCLC,> 100 µM
same,TGI,DMS 273 small cell lung,> 100 µM
same,TGI,SF-268 CNS,> 100 µM
same,TGI,UO-31 renal,> 100 µM
same,TGI,RXF-631 renal,> 100 µM
same,TGI,OVCAR-5 ovarian,> 100 µM
same,TGI,LOX IMVI melanoma,> 100 µM
same,TGI,OVCAR-4 ovarian,> 100 µM
same,TGI,SF-539 CNS,> 100 µM
same,TGI,RPMI-8226 leukemia,> 100 µM
same,TGI,SK-MEL-28 melanoma,> 100 µM
same,TGI,LXFL 529 NSCLC,> 100 µM
same,TGI,SNB-19 CNS,> 100 µM
same,TGI,HOP-62 NSCLC,> 100 µM
same,TGI,HCT-116 colon,> 100 µM
same,TGI,RXF 393 renal,> 100 µM
same,TGI,KM20L2 colon,> 100 µM
same,TGI,ACHN renal,> 100 µM
same,TGI,OVCAR-3 ovarian,> 100 µM
same,TGI,HL-60(TB) leukemia,> 100 µM
same,TGI,MOLT-4 leukemia,> 100 µM
same,TGI,COLO 205 colon,> 100 µM
same,TGI,CCRF-CEM leukemia,> 100 µM
same,TGI,XF 498 CNS,> 100 µM
same,TGI,SF-295 CNS,> 100 µM
same,TGI,SK-OV-3 ovarian,> 100 µM
same,TGI,SW-620 colon,> 100 µM
same,TGI,A498 renal,> 100 µM
same,TGI,786-0 renal,> 100 µM
same,TGI,KM12 colon,> 100 µM
same,TGI,NCI-H460 lung,> 100 µM
same,TGI,K-562 leukemia,> 100 µM
same,TGI,UACC-62 melanoma,> 100 µM
same,TGI,HCC-2998 colon,> 100 µM
same,TGI,M19-MEL melanoma,> 100 µM
same,TGI,SN12C renal,> 100 µM
same,TGI,HT29 colon,> 100 µM
same,TGI,DLD-1 colon,> 100 µM
same,TGI,U251 CNS,> 100 µM
same,TGI,NCI-H23 lung,> 100 µM
same,TGI,UACC-257 melanoma,> 100 µM
same,TGI,M14 melanoma,> 100 µM
